Measured values taken from patent US10202371B2, “Oxazolidin-2-one-pyrimidine derivatives and the use thereof as phosphatidylinositol-3-kinase inhibitors” (Novartis AG, priority 2012, dated 2019).
pIC50: −log10 of the molar value.

Assays:
[1] = biological target: PI3Kgamma (Homo sapiens (Human), UniProt P48736); assay: Biochemical assay PI3Kgamma (Adapta TR-FRET); conditions: read-out: PI3Kg/IC50
Text: The TR-FRET Adapta™ Universal Kinase Assay Kit was purchased from Invitrogen
Corporation (Carlsbad/CA, USA) (Cat. No. PV5099). The kit contains the following reagents: Adapta Eu-anti-ADP Antibody (Europium labeled anti-ADP antibody in HEPES buffered saline, Cat. No. PV5097), Alexa Fluor® 647-labeled ADP tracer (Alexa Fluor® 647-labeled ADP tracer in HEPES buffered saline, Cat. No. PV5098), proprietary TR-FRET dilution buffer pH 7.5 (Cat. No. PV3574).
PIK3CD substrate Phosphatidylinositol was obtained from Invitrogen (vesicules consisting of 2 mM PI in 50 mM HEPES pH7.5; Cat. No. PV5371).
Time-Resolved Fluorescence Resonance Energy Transfer (TR-FRET) is a technology based on energy transfer between two adjacent dyes, from an excited electron in one dye (the donor) to an electron of an adjacent dye (the acceptor) through resonance, then released as a photon. This energy transfer is detected by an increase in the fluorescence emission of the acceptor, and a decrease in the fluorescence emission of the donor. TR-FRET assays for protein kinases use a long-lifetime lanthanide Terbium or Europium chelates as the donor species which overcome interference from compound autofluorescence or light scatter from precipitated compounds, by introducing a delay after excitation by a flashlamp excitation source. Results are often expressed as a ratio of the intensities of the acceptor and donor fluorophores. The ratiometric nature of such a value corrects for differences in assay volumes between wells, as well as corrects for quenching effects due to colored compounds. The Adapta™ assay can be divided into two phases: a kinase reaction phase and an ADP detection phase. In the kinase reaction phase, all kinase reaction components are added to the well and the reaction is allowed to incubate for a set period of time specific for each kinase. After the reaction, a detection solution of Eu-labeled anti-ADP antibody, Alexa Fluor® 647-labeled ADP tracer, and EDTA (to stop the kinase reaction) are added to the assay well. ADP formed by the kinase reaction will displace the Alexa Fluor® 647-labeled ADP tracer from the antibody, resulting in a decrease in TR-FRET signal. In the presence of an inhibitor, the amount of ADP formed by the kinase reaction is reduced, and the resulting intact antibody-tracer interaction maintains a high TR-FRET signal. In the Adapta™ assay, the donor (Europium-anti-ADP antibody) is excited at 340 nm and will transfer its energy to the acceptor (Alexa Fluor® 647-labeled ADP tracer). The emission from the Alexa Fluor® 647 can be monitored with a filter centered at 665 nm because it is located between the emission peaks of the donor, which is measured at 615/620 nm.
50 nL of compound dilutions were dispensed onto white 384-well small volume polystyrene plate as described in section 2.2. Then 5 μL of PI3Kg and PI3Kd and lipid substrate (PI or PIP2:PS) followed by 5 μL of ATP (final assay volume 10 μL) are incubated at RT. The standard reaction buffer for the Adapta™ TR-FRET assay contained 10 mM Tris-HCl pH 7.5, 3 mM MgCl2, 50 mM NaCl, 1 mM DTT, 0.05% CHAPS. Reactions were stopped with 5 μL of a mixture of EDTA containing the Eu-labeled anti-ADP antibody and the Alexa Fluor® 647-labeled ADP tracer in TR-FRET dilution buffer (proprietary to IVG). Plates are read 15 to 60 mins later in a Synergy2 reader using an integration time of 0.4 seconds and a delay of 0.05 seconds. […] The standard compound NVP-BGT226 was used as a reference compound and included in all assay plates in the form of 16 dilution points in duplicate.
Data are analyzed using Excel fit software or Graphpad Prism. EC50 values were derived by fitting a sigmoidal dose-response curve to a plot of assay readout over inhibitor concentration. All fits were performed with the program XLfit4 (ID Business Solutions, Guildford, UK). […] All fits were performed with the program XLfit4 (ID Business Solutions, Guildford, UK).

[2] = Photostability in light stability chamber; assay type: physicochemical; conditions: 1.0 mg/ml in ethanol, 19620 kJ/m^2 over 13 h, 15° C., UPLC 254 nm
Procedure: Samples investigated for light stability were treated in a light stability chamber (Atlas CPS+, Serial Number 0704013). Solutions of 1.0 mg/ml in ethanol were prepared for each molecule and aliquots of 0.5 mL were dispensed into suitable micro tubes. All measurements were done in duplicate and compared to a reference wrapped in aluminium foil during light exposure. Solutions were exposed to 19620 kJ/m^2 over 13 h. Samples were kept at 15° C. during the experiment. […] The peak areas were automatically integrated, and the degradation percentage calculated as the difference between the corresponding peak area percentage of the reference sample and the average peak area percentage of the exposed samples (duplicate).

[3] = biological target: human mTOR (GST-mTOR) (Homo sapiens (Human), UniProt P42345); assay: Binding assay mTor (Lanthascreen kinase binding assay); conditions: Tracer-314
Text: Catalytically active human PI3Kα, PI3Kβ, PI3Kδ, and mTOR were cloned, expressed and purtified as described (Maira S M, Stauffer F, Brueggen J, Furet P, Schnell C, Fritsch C, Brachmann S, Chène P, de Pover A, Schoemaker K, Fabbro D, Gabriel D, Simonen M, Murphy L, Finan P, Sellers W, Garcia-Echeverria C (2008), Mol Cancer Ther. 7:1851-63 and Maira S M, Pecchi S, Brueggen J, Huh K, Schnell C, Fritsch C, Nagel T, Wiesmann M, Brachmann S, Dorsch M, Chène P, Schoemaker K, De Pover A, Menezes D, Fabbro D, Sellers W, Garcia-Echeverria C, Voliva CF (2011), Mol. Cancer Ther. accepted).
TR-FRET assays for protein kinases uses a long-lifetime lanthanide Terbium or Europium chelates as the donor species which overcome interference by compound autofluorescence or light scatter from precipitated compounds, by introducing a delay after excitation by a flashlamp excitation source. Results are often expressed as a ratio of the intensities of the acceptor and donor fluorophores. The ratiometric nature of such a value corrects for differences in assay volumes between wells, as well as corrects for quenching effects due to colored compounds.
Binding Assays are based on the binding and displacement of an Alexa Fluor® 647-labeled, ATP-competitive kinase inhibitors to the kinase of interest. Invitrogen's “Kinase Tracers” have been developed to address a wide range of kinase targets and are based on ATP-competitive kinase inhibitors, making them suitable for detection of any compounds that bind to the ATP site or to an allosteric site altering the conformation of the ATP site. Inhibitors that bind the ATP site include both Type I kinase inhibitors, which bind solely to the ATP site, and Type II inhibitors (e.g., Gleevec®/Imatinib, Sorafenib, BIRB-796), which bind to both the ATP site and a hydrophobic site exposed in the DFG-out (non-active) conformation. […] The sole exception was a substrate-competitive compound, and thus not a true allosteric inhibitor.
In contrast to most fluorescence-based kinase activity assays, LanthaScreen® Eu^3+ Kinase Binding Assays can be read continuously, which facilitates evaluation of compounds with slow binding kinetics. Also, unlike most activity assays, binding assays can be performed using either active or non-activated kinase preparations, which enables characterization of compounds that bind preferentially to non-activated kinases, such as Gleevec®/imatinib and some allosteric inhibitors.
In the Lanthascreen™ kinase binding assay, the donor (Eu^3+-anti-GST antibody) is excited at 340 nm and will transfer its energy to the acceptor (Alexa Fluor® 647-labeled ATP-competitive kinase inhibitor=Tracer-314). The emission from the Tracer-314 (Alexa Fluor® 647 inhibitor) can be monitored with a filter centered at 665 nm because it is located between the emission peaks of the donor, which is measured at 615/620 nm. The binding of both, the Tracer-314 and Eu^3+-anti-GST antibody, to the kinase results in a high degree of FRET from the Eu^3+-donor fluorophore to the Alexa-Fluor® 647-acceptor fluorophore on the Tracer-314. Binding of an inhibitor to the kinase competes for binding with the tracer, resulting in a loss of FRET.
50 nL of compound dilutions were dispensed onto white 384-well small volume polystyrene plate as described in section 2.2. Then 5 μL of GST-mTOR and Europium-anti-GST antibody followed by 5 μL of tracer-314 (final assay volume 10 μL) are incubated at RT. The standard reaction buffer for the Lanthascreen™ kinase binding assay contained 50 mM HEPES pH 7.5, 5 mM MgCl2, 1 mM EGTA, 0.01% Pluronic F-127. Plates are read 60 mins later in a Synergy2 reader using an integration time of 0.2 microseconds and a delay of 0.1 microseconds.
To calculate the emission ratio, the signal emitted at 665 nm from the acceptor (Alexa Fluor® 647-labeled Tracer-314) is divided by the signal emitted at 620 nm from the donor (Eu^3+ anti-GST antibody) […]

Chain of PI3Kgamma (P48736 whole entry, species assumed): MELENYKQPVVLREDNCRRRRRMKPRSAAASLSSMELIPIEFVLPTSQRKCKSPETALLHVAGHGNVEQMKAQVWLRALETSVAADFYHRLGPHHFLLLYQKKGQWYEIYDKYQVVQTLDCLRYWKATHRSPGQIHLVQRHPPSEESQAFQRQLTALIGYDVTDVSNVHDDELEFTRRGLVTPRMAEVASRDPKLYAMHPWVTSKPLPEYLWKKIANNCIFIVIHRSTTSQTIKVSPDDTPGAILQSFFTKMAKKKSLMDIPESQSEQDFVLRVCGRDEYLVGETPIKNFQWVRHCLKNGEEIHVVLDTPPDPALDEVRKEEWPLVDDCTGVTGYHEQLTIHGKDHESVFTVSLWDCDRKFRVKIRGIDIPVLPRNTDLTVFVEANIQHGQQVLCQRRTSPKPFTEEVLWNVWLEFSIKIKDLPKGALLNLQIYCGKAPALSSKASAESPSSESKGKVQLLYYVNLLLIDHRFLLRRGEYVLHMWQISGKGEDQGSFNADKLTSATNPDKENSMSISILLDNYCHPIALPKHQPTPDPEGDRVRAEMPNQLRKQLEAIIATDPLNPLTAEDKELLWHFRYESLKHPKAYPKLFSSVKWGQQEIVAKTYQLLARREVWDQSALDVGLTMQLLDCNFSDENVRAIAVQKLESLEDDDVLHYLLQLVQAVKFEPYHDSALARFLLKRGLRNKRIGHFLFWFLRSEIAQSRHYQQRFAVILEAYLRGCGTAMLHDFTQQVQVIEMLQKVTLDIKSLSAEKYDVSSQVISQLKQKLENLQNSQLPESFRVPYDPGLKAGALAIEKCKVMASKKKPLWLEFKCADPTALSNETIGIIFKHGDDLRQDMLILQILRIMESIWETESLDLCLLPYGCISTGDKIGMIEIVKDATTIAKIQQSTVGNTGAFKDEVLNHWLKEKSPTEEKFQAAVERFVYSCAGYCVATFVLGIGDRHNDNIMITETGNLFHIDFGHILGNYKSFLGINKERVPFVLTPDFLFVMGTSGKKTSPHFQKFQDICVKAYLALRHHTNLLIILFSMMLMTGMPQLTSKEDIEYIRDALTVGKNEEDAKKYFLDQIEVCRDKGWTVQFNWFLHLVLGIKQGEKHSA

pIC50 [1]	% degradation in photostability assay (average) [2]	pIC50 [3]	SMILES
5.35			CC[C@H]1[C@@H](c2ccccc2)OC(=O)N1c1cc(-c2cnc(N)nc2C(F)(F)F)nc(N2CCOCC2)n1 [Example 4]
5.15	0%	5.33	CC[C@H]1[C@H](c2cccc(OC)c2)OC(=O)N1c1cc(-c2cnc(N)nc2C(F)(F)F)nc(N2CCOCC2)n1 [Example 6]
